From paper PMC2408923, “N-methylisatin-beta-thiosemicarbazone derivative (SCH 16) is an inhibitor of Japanese encephalitis virus infection in vitro and in vivo” (Virology Journal, 2008)
Values after ≈ are worked out from the molar mass of the structure shown. Read-outs that look alike come from different tables or passages of the source.

Tests used:
JEV (P20778) [1] = assay: Plaque reduction assay, JEV in PS cells; settings: for IC50: Japanese encephalitis virus
in vitro [2] = settings: pig
in vitro [3] = settings: hamster
Den-2 virus (P23085) = assay: Plaque reduction assay, Den-2 in BHK 21 cells; assay type: cell-based, Dengue-2 virus; settings: non-cytotoxic concentrations
WNV (G22886) = assay: Plaque reduction assay, WNV in PS cells; settings: for IC50: West Nile virus
JEV, WNV and Den-2 = assay: Cytopathic effect (CPE) inhibition assay; assay type: cell-based; settings: screen against JEV, doubling dilutions beginning with CC50
JEV = assay: In vivo evaluation by intracerebral JEV challenge; parameters: species or system Swiss albino mice
[4] = tested on: JEV replication in PS cells; assay: Kinetics of antiviral activity: staggered addition of SCH 16 to JEV infected PS cells; assay type: cell-based, Japanese Encephalitis Virus; settings: for Inhibition of JEV replication (viral RNA, viral antigen, virus yield): read at 48 hours; for JEV antigen by immunofluorescence: Figure 3 Panel B
[5] = tested on: JEV replication in PS cells; assay: Minimum contact time: SCH 16 removed at time points from JEV infected PS cells; assay type: cell-based, Japanese Encephalitis Virus
JEV translation = assay: In vitro translation of RNA from SCH 16 treated JEV infected PS cells
JEV (P20778) [6] = assay: In vivo evaluation by peripheral (intraperitoneal) JEV challenge; parameters: species or system Swiss albino mice; settings: for Protection: mice, 50LD50 JEV intraperitoneal
[7] = read-out: IC50, plaque reduction, JEV (molar)
[8] = read-out: IC50, plaque reduction, WNV (molar)

Work on `NC(=O)c1ncn([C@@H]2O[C@H](CO)[C@@H](O)[C@H]2O)n1` [Ribavirin, reference compound] yielded an IC50 (JEV (P20778) [1]; 72 h, read-out: IC50, plaque reduction, JEV) of 3.9 µg/mL, an IC50 (JEV (P20778) [1]; [7]) of 16 µM and a CC50 (in vitro [2]) of 50 µg/mL (≈ 205 µM). The CC50 (in vitro [3]) was 200 µg/mL (≈ 819 µM), the “Antiviral activity against Den-2 plaque formation” value (Den-2 virus (P23085)) was “dose dependent inhibition” and the IC50 (WNV (G22886); read-out: IC50, plaque reduction, WNV) was 1.7 µg/mL. It also gave an IC50 (WNV (G22886); [8]) of 7 µM.

In the case of `COc1cc(-c2cnc(/N=C3\C(=O)N(CN4CCN(c5ccc([N+](=O)[O-])cc5)CC4)c4ccccc43)nc2N)cc(OC)c1OC` [SCH 16], the “Inhibition of CPE” value (JEV, WNV and Den-2) is reported as “showed inhibition of CPE”, the Day of death (JEV; mouse, in vivo) is reported as 9 days and the “Prolonged survival time between treated and untreated mice” value (JEV; mouse, in vivo) is reported as 3 days. The Protection (JEV; mouse, in vivo) was “no protection”, the “Day post-infection when symptoms started appearing” value (JEV; treated mice, intracerebral challenge, untreated sick by day 3) was 7 days and the IC50 (JEV (P20778) [1]; read-out: IC50, concentration inhibiting 50% of the plaques produced by JEV) was 16 µg/mL. The IC50 (JEV (P20778) [1]; [7]) was 25 µM, the “Therapeutic Index (TI), CC50/IC50, JEV” value (JEV (P20778) [1]; ratio of CC50 to IC50) was 5 and the CC50 (in vitro [2]) was 76 µg/mL (≈ 122 µM). The CC50 (in vitro [3]) was 126 µg/mL (≈ 202 µM), the “Inhibition of JEV replication (viral RNA, viral antigen, virus yield)” value ([4]; 76 μg/ml added at 2, 4, 6 and 8 hours post-infection) was “completely inhibit” and the “JEV antigen by immunofluorescence” value ([4]; SCH 16 added at 0, 2, 4, 6 and 8 hrs post infection) was “undetectable”. For the same compound, the “JEV antigen by immunofluorescence” value ([4]; SCH 16 added at 10, 12 and 14 hours post infection) was “positive for viral antigen”, the “Inhibition of JEV replication (viral RNA, viral antigen, virus yield)” value ([4]; added beyond 8 hours post infection) was “did not completely inhibit” and the “Minimum contact period required to completely inhibit virus replication” value ([5]; JEV infected PS cells) was 8 h. The “Inhibition of virus replication (viral antigen, viral RNA, infectious virus yield)” value ([5]; SCH 16 in contact with infected cultures for more than 8 hours post-infection) was “complete inhibition of virus replication”, the “Inhibition of virus replication (viral antigen, viral RNA, infectious virus yield)” value ([5]; SCH16 withdrawn at earlier time points) was “no inhibition of virus replication” and the “In vitro translation of viral RNA into JEV proteins” value (JEV translation; RNA from JEV infected cells treated with SCH 16 for 4 hours) was “failed to translate into JEV proteins”. The “In vitro translation of viral RNA into JEV proteins” value (JEV translation; RNA from infected cells treated with SCH 16 at 10 hours) was “showed the presence of JEV proteins”, the Protection (JEV (P20778) [6]; 200 mg/kg body weight oral twice daily) was 25% and the Protection (JEV (P20778) [6]; 400 mg/kg body weight oral twice daily) was 50%. For the same compound, the Protection (JEV (P20778) [6]; 500 mg/kg body weight oral twice daily) was “complete protection”, the Prevention of mortality (JEV (P20778) [6]; mouse, in vivo) was 100% and the “Viral RNA in brain homogenate by RT-PCR” value (JEV (P20778) [6]; mouse, in vivo) was “viral RNA was present”. For the same compound, the “Viral antigen in brain smears by immunofluorescent staining” value (JEV (P20778) [6]; mouse, in vivo) was “no viral antigen could be demonstrated”, the “Virus isolation from brain tissue of surviving mice” value (JEV (P20778) [6]; mouse, in vivo) was “could not be isolated” and the “Antiviral activity against Den-2 plaque formation” value (Den-2 virus (P23085)) was “No antiviral activity”. The IC50 (WNV (G22886); read-out: IC50, concentration inhibiting 50% of the plaques produced by WNV) was 4 µg/mL, the IC50 (WNV (G22886); [8]) was 6 µM and the “Therapeutic Index (TI), CC50/IC50, WNV” value (WNV (G22886); ratio of CC50 to IC50) was 19.
